EP4620480A1, “IMPLANTATION FACILITATOR, AND SCREENING SYSTEM THEREFOR” (Kansai Medical University Educational Corporation, priority 2022, dated 2025)
Peptide text beside a SMILES is read from it. * marks the point of attachment. Myristoyl = CCCCCCCCCCCCCC(=O)*

Columns and labels:
[1] = system: B6D2F 1 mouse embryos; assay: Embryo development after transfer with peptide-supplemented medium (Example 7); format: in vivo; conditions: blastocysts in KSOM medium with 32 µM Iznm-2, transferred to pseudopregnant ICR mice, examined at E14
Experimental: In order to examine the effect of the peptide medicament on embryo development, the following experiment was performed. ICR male mice at 8 weeks of age were vasectomized. ICR female mice in proestrus were mated with the vasectomized male mice, and the female mice having developed a copulation plug on the following day were used as pseudopregnant female mice. Two days after confirming the presence of the copulation plug, B6D2F 1 mouse embryos that had developed into blastocysts were transferred to the female mice. The blastocysts were added to KSOM medium supplemented with 32 µM Iznm-2 immediately before the transfer, and the embryos were transferred together with the medium. The amount of the medium injected into the uterus at the time of transfer was 5 µl or less. The embryo transfer was performed in the following manner. The pseudopregnant female mice were anesthetized, and the skin on one side in the dorsum and the abdominal wall of each mouse were incised to expose the uterus to the outside of the body. The uterus was pierced through with a 26-G needle, and the embryos were injected into the thus-formed hole together with the medium using a glass tube. After the transfer, the uterus was returned to the body, and the incision was sutured. The transferred embryos were allowed to develop in the recipient mice until E14. […]

[2] = Blood tests on maternal bodies after intraperitoneal administration; format: in vivo; conditions: female mice, 8 µM with respect to total weight, in corn oil, blood 24 hours after administration
Experimental: An excess amount of Iznm-2 was administered intraperitoneally to female mice to examine the side effects of the peptide medicament. In Example 8, […] Iznm-2 was administered together with 5 µl or less of the embryos to the uterus of each mouse. In the present experiment, Iznm-2 was administered in such a manner that the concentration thereof would be 8 µM with respect to the total weight of each mouse. Iznm-2 was dissolved in corn oil. As a control, corn oil without the peptide medicament was administered. Blood samples were collected 24 hours after the administration, and blood components serving as indicators of the condition of the liver and kidney were analyzed.

- development of transferred embryos [1]: developed normally
- CRE ([2]; Kidney): 0.12 mg/dL
- LAP ([2]; Liver & Kidney): 26 IU/L
- TP ([2]; Liver & Kidney): 5.1 g/dL
- A/G ([2]; Liver): 1.85
- ALB ([2]; Liver): 3.3 g/dL
- ALP ([2]; Liver): 463 IU/L
- ChE ([2]; Liver): 32.5 IU/L
- D-BIL ([2]; Liver): 0.02 mg/dL
- I-BIL ([2]; Liver): 0.02 mg/dL
- T-BIL ([2]; Liver): 0.08 mg/dL
- γ-GT ([2]; Liver): 3 IU/L
SMILES: CCCCCCCCCCCCCC(=O)N[C@@H](CCCCN)C(=O)N[C@@H](Cc1ccccc1)C(=O)N[C@@H](CCC(=O)O)C(=O)N[C@@H](CCC(=O)O)C(=O)N[C@@H](CCC(=O)O)C(=O)N[C@@H](CCCNC(=N)N)C(=O)N[C@@H](CO)C(=O)N[C@@H](CCCNC(=N)N)C(=O)N[C@@H](CS)C(=O)N[C@@H](CCCCN)C(=O)N[C@@H](Cc1c[nH]c2ccccc12)C(=O)N[C@@H](CCSC)C(=O)N[C@H](C(=O)O)[C@@H](C)O [Iznm-2, Myr-KFEEERSRCKWMT] (Myristoyl-KFEEERSRCKWMT-OH)
- ALT ([2]; Liver): 38 IU/L
